According to patent publication EP3502109A1, “TRIAZOLE-PHENYL-THIAZOLE HETEROCYCLES AS INNOVATIVE INHIBITORS OF TRYPANOTHIONE REDUCTASE AND THEIR USE AS LEISHMANICIDES” (Consejo Superior De Investigaciones Científicas, priority 2017, dated 2019):
Structures can show the parent of a compound that is named as a salt.

Legend:
[1] = test system: L. infantum intracellular amastigotes; test: Leishmania infection assay (intracellular amastigotes in THP-1 macrophages); format: cell-based; conditions: THP-1, 48 h
Protocol: Human THP-1 monocytic cells were seeded at 1.2 x 10^5 cells/ml in 24-multidish plates (Nunc, Roskilde, Denmark) and differentiated to macrophages for 24 h in 1 ml of RPMI 1640 medium containing 10 ng/ml of phorbol 12-myristate 13-acetate (PMA) (Sigma-Aldrich, St. Louis, MO). Medium culture was removed, and 1.2 x 10^6 Leishmania amastigotes in 1 ml of THP-1 medium were added to each well. Four hours later, the medium with non-infective amastigotes was completely removed, washed 3 times with 1 phosphate-buffered saline (PBS), and replaced with new THP-1 medium and the corresponding treatment. After 48 h of treatment, medium was removed; THP-1 cells were washed 3 times with 1xPBS and detached with TrypLE Express (Invitrogen, Leiden, The Netherlands) according to the manufacturer's indications. Infection quantification was measured by flow cytometry. Drug concentrations ranged from 0.2 µM to 25 µM.

[2] = target: recombinant Li-TryR (Leishmania infantum, UniProt A4HSF7); test: Li-TryR oxidoreductase activity assay; format: biochemical
Sequence of recombinant Li-TryR (A4HSF7 entry or part of it): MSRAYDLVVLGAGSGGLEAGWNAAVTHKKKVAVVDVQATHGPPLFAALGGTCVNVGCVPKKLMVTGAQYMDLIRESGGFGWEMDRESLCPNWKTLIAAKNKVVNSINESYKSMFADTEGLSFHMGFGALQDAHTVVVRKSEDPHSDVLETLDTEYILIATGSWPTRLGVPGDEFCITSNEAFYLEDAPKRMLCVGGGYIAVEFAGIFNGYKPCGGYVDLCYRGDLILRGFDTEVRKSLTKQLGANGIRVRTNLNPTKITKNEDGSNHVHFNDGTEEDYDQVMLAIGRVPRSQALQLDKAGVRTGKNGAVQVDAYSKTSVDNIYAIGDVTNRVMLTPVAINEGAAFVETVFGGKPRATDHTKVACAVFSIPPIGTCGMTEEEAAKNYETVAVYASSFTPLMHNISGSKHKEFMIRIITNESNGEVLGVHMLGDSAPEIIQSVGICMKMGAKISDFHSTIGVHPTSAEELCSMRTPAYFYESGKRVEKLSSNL
Protocol: Oxidoreductase activity was determined according to the method described by Hamilton et al. (Biochem. J., 2003, 369, 529-537). Briefly, reactions were carried out at 26 °C (250 µL) of HEPES pH 8.0 (40 mM) buffer containing EDTA (1 mM), NADPH (150 µM), NADP+ (30 µM), DTNB (25 µM), T[S]2 (1 µM), glicerol (0.02%), DMSO (1.5%) and recombinant Li-TryR (7 nM). […] Enzyme activity was monitored by the increase in absorbance at 412 nm for 1 h at 26 °C in a VERSAmax microplate reader (Molecular Devices, California, USA). All the assays were conducted in triplicate in at least three independent experiments. Data were analyzed using a non-linear regression model with the Grafit6 software (Erithacus, Horley, Surrey, UK).

[3] = target: T1, Li-TryR dimeric form (Leishmania infantum, UniProt A4HSF7); test: Dimer quantitation assay (ELISA), Li-TryR monomer displacement; format: binding
T1 sequence (A4HSF7 entry or part of it): as above
Protocol: The stability of the Li-TryR dimeric form in the presence of the compounds was evaluated using an Enzyme-Linked ImmunoSorbent Assay (ELISA). Briefly a dual (HIS/FLAG) tagged Li-TryR (400 nM) was incubated in a dimerization buffer (200 µL 300 mM NaCl, 50 mM Tris pH 8.0) for 16 h at 37 °C with agitation and in a humid atmosphere in the presence of different peptide concentration (10 to 90 µM) in 1.5ml tubes. Next, the tubes were centrifuged at 30000 rcf and supernatants were disposed in anti-flag coated 96 well plates and incubated 30 min, at 37°C with gentle shaking. Then the plates were washed ten times with TTBS (Tween 0.1%, 2 mM Tris, 138 mM NaCl 138 pH 7.6) and incubated with diluted monoclonal α-HIS HRP conjugated antibody (200 µL, Abcam, Cambridge, UK) in BSA (5%) in TTBS for 1 h at room temperature. The plates were washed once again as previously described and 1,2-phenylenediamine dihydrochloride (OPD) substrate (100 µL, Dako, Glostrup, Denmark) prepared according to manufacturer's instructions was added. The enzymatic reaction was stopped after 10 min with H2SO4 (100 µL, 0.5 M) and the absorbances were measured at 490 nm in a VERSAmax microplate reader (Molecular Devices, California, USA). All the assays were conducted in triplicate in at least three independent experiments. Data were analyzed using a non-linear regression model with the Grafit6 software (Erithacus, Horley, Surrey, UK). Table 1. IC50 ± SEM values for target compounds of formula I-A and I-B in the oxidoreductase activity assays and in the Li-TryR monomer displacement

[4] = test system: L. infantum promastigotes; test: Leishmanicidal activity on promastigotes (PI exclusion, flow cytometry); format: cell-based; conditions: Leishmania infantum, 24 h
Protocol: L. infantum promastigotes (MCAN/ES/ 89/IPZ229/1/89) were grown in RPMI-1640 medium (Sigma-Aldrich, St. Louis, MO, USA) supplemented with 10% heat-inactivated fetal calf serum (FCS), antibiotics, and 25 mm HEPES (pH 7.2) at 26 °C.
(§1) Drug treatment of amastigotes was performed during the logarithmic growth phase at a concentration of 1×10^6 parasites/mL at 37 °C for 24 h. Drug treatment of promastigotes was performed during the logarithmic growth phase at a concentration of 2×10^6 parasites/mL at 26 °C for 24 h. The percentage of living cells was evaluated by flow cytometry by the propidium iodide (PI) exclusion method.^17 Drug concentrations ranged from 0.2 µM to 25 µM.

[5] = test system: L. infantum axenic amastigotes; test: Leishmanicidal activity on axenic amastigotes (PI exclusion, flow cytometry); format: cell-based; conditions: Leishmania infantum, 24 h
Protocol: L. infantum axenic amastigotes were grown in M199 (Invitrogen, Leiden, The Netherlands) medium supplemented with 10% heat inactivated FCS, 1 g/L β-alanine, 100 mg/L L-asparagine, 200 mg/L sacarose, 50 mg/L sodium pyruvate, 320 mg/L malic acid, 40 mg/L fumaric acid, 70 mg/L succinic acid, 200 mg/L α-ketoglutaric acid, 300 mg/L citric acid, 1.1 g/L sodium bicarbonate, 5 g/L MES, 0.4 mg/L hemin, 10 mg/L gentamicine pH 5.4 at 37 °C. THP-1 cells were grown in RPMI-1640 medium (Gibco, Leiden, The Netherlands) supplemented with 10% heat inactivated FCS, antibiotics, 1 mM HEPES, 2 mM glutamine and 1 mM sodium pyruvate, pH 7.2 at 37 °C and 5% CO2.
as §1

[6] = test system: macrophage-differentiated THP-1 monocytes; test: Cytotoxicity assay, macrophage-differentiated THP-1 (crystal violet); format: cell-based; conditions: Homo sapiens, THP-1, 24 h; read-out: EC50 (µM) THP-1 dif
Protocol: (§2) Human THP-1 monocytic cells were seeded at 1.2 x 10^5 cells/ml in 24-multidish plates (Nunc, Roskilde, Denmark) and differentiated to macrophages for 24 h in 1 ml of RPMI 1640 medium containing 10 ng/ml of phorbol 12-myristate 13-acetate (PMA) (Sigma-Aldrich, St. Louis, MO). Human HepG2 cells were seeded at 8 x 10^5 cells/ml in 24-multidish plates (Nunc, Roskilde, Denmark). After 24 h of drug treatment, both cell lines were washed with PBS and stained with violet crystal solution (0.2% in 2% ethanol) in for 10 min. at room temperature. After dye removal, cells were washed twice with water. Once dried, the wells were treated with 1% SDS for 30 min and the absorbance at 570nm was monitored in a plate reader. Table 2. EC50± SEM values for the compounds of formula I-A and I-B on L. infantum promastigotes, extracellular and intracellular amastigotes and cytotoxic activity in macrophage-differentiated THP-1 monocytes and HepG2 cell lines

[7] = test system: HepG2 cells; test: Cytotoxicity assay, HepG2 (crystal violet); format: cell-based; conditions: Homo sapiens, HepG2, 24 h
Protocol: as §2

[8] = target: T1, Li-TryR dimeric form; conditions: background, ChemBioChem, 2013, 14(10), 1212-1217; cited from earlier work

Compound CC(C)(C)Cc1csc(-c2ccc(-n3cc(CCCCN)nn3)cc2OCCN2CCNC2=O)n1 [Compound 8b, 1-(2-(5-(4-(4-Aminobutyl)-1H-1,2,3-triazol-1-yl)-2-(4-neopentylthiazol-2-yl)phenoxy)ethyl)imidazolidin-2-one 2,2,2 trifluoroacetate] has an EC50 [1] of 30.2 ± 1.7 µM, an IC50 [2] of 17.2 ± 1.69 µM and an IC50 [3] of over 75 µM. It also gave an EC50 [4] of 45 ± 3.51 µM and an EC50 [5] of 18.2 ± 0.4 µM.
NCCCCc1cn(-c2ccc(-c3nc(CCc4ccccc4)cs3)c(OCCN3CCNC3=O)c2)nn1 [Compound 8e, 1-(2-(5-(4-(4-Aminobutyl)-1H-1,2,3-triazol-1-yl)-2-(4-phenethylthiazol-2-yl)phenoxy)ethyl)imidazolidin-2-one 2,2,2 trifluoroacetate] showed an EC50 [1] of 33.6 ± 1.5 µM, an EC50 [6] of 27.2 ± 1.2 µM and an EC50 [4] of 30.54 ± 0.16 µM. It also gave an EC50 [7] of 20.4 ± 2.37 µM and an EC50 [5] of 13.9 ± 0.6 µM.
With NCCCCc1cn(-c2ccc(-c3nc(CCc4ccc5ccccc5c4)cs3)c(OCCN3CCNC3=O)c2)nn1 [Compound 8g, 1-(2-(5-(4-(4-Aminobutyl)-1H-1,2,3-triazol-1-yl)-2-(4-(2-(naphthalen-2-yl)ethyl)thiazol-2-yl)phenoxy)ethyl)imidazolidin-2-one 2,2,2 trifluoroacetate] the EC50 [1] was 31.2 ± 1.9 µM, the EC50 [6] was 47.6 ± 3.3 µM and the IC50 [2] was 6.22 ± 1.01 µM. It also gave an IC50 [3] of 11.2 ± 0.41 µM, an EC50 [4] of 8.79 ± 0.75 µM and an EC50 [7] of 33.3 ± 2.7 µM. The EC50 [5] was 23 ± 1.86 µM.
Work on C[n+]1nn(-c2ccc(-c3nc(CCc4ccc5c(c4)CCO5)cs3)c(OCCN3CCNC3=O)c2)cc1CCCCN [Compound 10d, 4-(4-Ammoniobutyl)-1-(4-(4-(2-(2,3-dihydrobenzofuran-5-yl)ethyl)thiazol-2-yl)-3-(2-(2-oxoimidazolidin-1-yl)ethoxy)phenyl)-3-methyl-1H-1,2,3-triazol-3-ium 2,2,2-trifluoroacetate trifluoromethanesulfonate] yielded an EC50 [6] of at least 75 µM, an IC50 [2] of 5.42 ± 0.23 µM and an IC50 [3] of over 75 µM. It also gave an EC50 [4] of 47 ± 2.08 µM, an EC50 [7] of at least 75 µM and an EC50 [5] of at least 75 µM.
In the case of C[n+]1nn(-c2ccc(-c3nc(CCc4ccc(-c5ccccc5)cc4)cs3)c(OCCN3CCNC3=O)c2)cc1CCCCN [Compound 10e, 1-(4-(4-(2-([1,1'-Biphenyl]-4-yl)ethyl)thiazol-2-yl)-3-(2-(2-oxoimidazolidin-1-yl)ethoxy)phenyl)-4-(4-ammoniobutyl)-3-methyl-1H-1,2,3-triazol-3-ium 2,2,2-trifluoroacetate trifluoromethanesulfonate], the EC50 [1] is reported as 19.5 ± 1 µM, the EC50 [6] is reported as 21.6 ± 0.7 µM and the IC50 [2] is reported as 5.19 ± 0.82 µM. It also gave an IC50 [3] of 23.8 ± 0.96 µM, an EC50 [4] of 18.7 ± 1.26 µM and an EC50 [7] of at least 75 µM. It also gave an EC50 [5] of 11.6 ± 1.14 µM.
Work on CC[n+]1nn(-c2ccc(-c3nc(CCc4ccc(-c5ccccc5)cc4)cs3)c(OCCN3CCNC3=O)c2)cc1CCCCN [Compound 10f, 1-(4-(4-(2-([1,1'-Biphenyl]-4-yl)ethyl)thiazol-2-yl)-3-(2-(2-oxoimidazolidin-1-yl)ethoxy)phenyl)-4-(4-ammoniobutyl)-3-ethyl-1H-1,2,3-triazol-3-ium 2,2,2-trifluoroacetate trifluoromethanesulfonate] yielded an EC50 [6] of 19.9 ± 1.1 µM, an IC50 [2] of 3.88 ± 0.55 µM and an IC50 [3] of 87.06 ± 0.1 µM. It also gave an EC50 [4] of 6.03 ± 0.49 µM, an EC50 [7] of 69.9 ± 2.97 µM and an EC50 [5] of 15.5 ± 0.7 µM.
In the case of “PEIIQSVGIS-Nle-K-Nle: 13-mer linear peptide derived from an α-helix spanning residues P435 to M447 of Li-TryR; prototype dimerization inhibitor (C-terminal Nle-K-Nle)”, the Li-TryR dimerization inhibition [8] is given as “low micromolar range”.
For “PKIIQSVGIS-Nle-K-Nle: 13-mer linear peptide derived from an α-helix spanning residues P435 to M447 of Li-TryR; prototype dimerization inhibitor (C-terminal Nle-K-Nle)”, the Li-TryR dimerization inhibition [8] is listed as “low micromolar range”.
